Measured values published in article PMC5357622, “Chelation Motifs Affecting Metal-dependent Viral Enzymes: N′-acylhydrazone Ligands as Dual Target Inhibitors of HIV-1 Integrase and Reverse Transcriptase Ribonuclease H Domain” (Frontiers in Microbiology, 2017).
Where “and” joins values, the source holds several entries; their conditions need not be identical. Equal entries are not always repeated.

Columns and labels:
[1] = molecular target: T1, HIV-1 RT-associated RNase H (Human immunodeficiency virus type 1 group M subtype B, UniProt P03366); assay: HIV-1 RT-associated RNase H assay (fluorescent RNA/DNA hybrid); format: biochemical
T1 construct: Human immunodeficiency virus type 1 heterodimeric RT was expressed and purified; made in house
Method: Human immunodeficiency virus type 1 heterodimeric RT was expressed and purified as previously described ([Esposito et al., 2011]; [Meleddu et al., 2014]). The HIV-1 RT-associated RNase H activity was measured as described ([Corona et al., 2014a]; [Meleddu et al., 2015]). Briefly, 20 ng of HIV-1 RT was incubated in 100 μL reaction volume containing 50 mM Tris-HCl (pH 7.8), 6 mM MgCl2, 1 mM DTT, 80 mM KCl, hybrid RNA/DNA (5′-[…]-3′-Fluorescein, 5′-[…]-3′-Dabcyl) and 2 nM RT. The reaction mixture was incubated for 1 h at 37°C; the reaction was stopped by addition of EDTA and products were measured with a Victor 3 (Perkin Elmer model 1420-051) equipped with filters for 490/528 nm (excitation/emission wavelength).

[2] = molecular target: HIV-1 IN in presence of LEDGF/p75 (Human immunodeficiency virus type 1 group M subtype B, UniProt P03366); assay: HIV-1 IN/LEDGF HTRF LEDGF-dependent integration assay
Method: The IN-LEDGF/p75 dependent assay allows to measure the inhibition of 3′ processing and strand transfer IN reactions in presence of recombinant LEDGF/p75 protein, as previously described ([Tintori et al., 2015]). Briefly, 50 nM IN was pre-incubated with increasing concentration of compounds for 1 h at room temperature in reaction buffer containing 20 mM HEPES pH 7.5, 1 mM DTT, 1% glycerol, 20 mM MgCl2, 0.05% Brij-35 and 0.1 mg/ml BSA. DNA donor substrate, DNA acceptor substrate and 50 nM LEDGF/p75 protein were added and incubated at 37°C for 90 min. After the incubation, 4 nM of Europium-Streptavidin were added to the reaction mixture and the HTRF signal was recorded using a Perkin Elmer Victor 3 plate reader using a 314 nm for excitation wavelength and 668 and 620 nm for the wavelength of the acceptor and the donor substrates emission, respectively.

HIV-1 (strain IIIB) = assay: Cell-based HIV assay in MT-4 cells (MTT, virus-induced cytopathic effect); conditions: Human immunodeficiency virus 1, IIIB
Method: (§1) The procedure to determine anti-HIV activity and cytotoxicity of the compounds in human lymphocyte MT-4 cells was published elsewhere ([Pannecouque et al., 2008]). Briefly, serial dilutions of the compounds were added to 96-well plates containing the MT-4 cells. To the virus-infected wells, 100–300 CCID50 (50% cell culture infectious dose-50%) of HIV-1 (strain IIIB) or HIV-2 (strain ROD) was added. The mock-infected wells received the compounds without the virus. After 5 days incubation, the spectrophotometric MTT assay was performed to determine the effect of the compounds on the viability of the mock- and HIV-infected cells.

in vitro = format: cell-based; conditions: human
Method: as §1

Chain of HIV-1 IN in presence of LEDGF/p75 (O75475 whole entry, other chains not shown): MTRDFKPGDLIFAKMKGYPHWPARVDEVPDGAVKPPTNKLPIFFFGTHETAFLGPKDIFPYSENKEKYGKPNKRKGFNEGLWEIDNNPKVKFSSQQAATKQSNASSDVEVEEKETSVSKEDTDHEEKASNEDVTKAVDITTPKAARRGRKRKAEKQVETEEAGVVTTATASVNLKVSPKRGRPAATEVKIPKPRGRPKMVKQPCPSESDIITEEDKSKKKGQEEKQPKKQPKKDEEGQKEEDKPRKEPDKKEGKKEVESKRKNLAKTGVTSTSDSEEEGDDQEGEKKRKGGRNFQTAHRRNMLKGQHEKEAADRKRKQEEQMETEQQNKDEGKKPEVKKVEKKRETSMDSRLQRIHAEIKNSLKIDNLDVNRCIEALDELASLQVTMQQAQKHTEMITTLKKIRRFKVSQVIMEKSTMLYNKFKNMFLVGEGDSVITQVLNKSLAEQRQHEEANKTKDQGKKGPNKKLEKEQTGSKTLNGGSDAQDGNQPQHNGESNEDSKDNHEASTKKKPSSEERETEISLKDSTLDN

## CCCCCCCC(=O)N/N=C/c1cccc(OC)c1O [Compound 2]
[1]
  IC50: ~60 µM and 62 µM

## CCOC(=O)C(=O)CC(=O)/C=C/c1cccn1Cc1ccc(F)cc1 [RDS1643, reference compound]
[1]
  IC50: 7.5 ± 0.9 µM

## O=C(N/N=C/c1ccccc1O)c1cc(O)c(O)c(O)c1 [Compound 13]
[1]
  IC50: 2.3 ± 0.7 µM
[2]
  IC50: > 100 µM

## O=C(N/N=C/c1ccc(O)cc1O)c1cc(O)c(O)c(O)c1 [Compound 18]
[1]
  IC50: 1.7 ± 0.1 µM
[1]; RNase H versus IN
  RNase H inhibition potency relative to IN activity: ninefold more potently
HIV-1 (strain IIIB); MT4, 120 h, read-out: EC50 for HIV-1 (50% protection from virus-induced cytopathic effect), 5 days, mean ± SD of two independent tests
  EC50: 17 ± 4 µM
HIV-1 (strain IIIB); MT4, at a concentration of 25 μM
  inhibition at 25 µM: 55 to 82%
In vitro
  CC50 at 5 days: 61 µM
[2]
  IC50: 16 ± 3 µM

## O=C(N/N=C/c1cc(O)ccc1O)c1cc(O)c(O)c(O)c1 [Compound 16]
[1]
  IC50: 2.1 ± 0.1 µM
[2]
  IC50: 69 ± 5 µM

## O=C(N/N=C/c1cc(O)c(O)cc1O)c1ccccc1O [Compound 8]
[1]
  IC50: 8.8 ± 3.1 µM
[2]
  IC50: 30 ± 1 µM

## COc1ccc(O)c(/C=N/NC(=O)c2cc(O)c(O)c(O)c2)c1 [Compound 17]
[1]
  IC50: 2 ± 0.5 µM
[2]
  IC50: > 100 µM

## O=C(N/N=C/c1c(O)cc(O)cc1O)c1cc(O)c(O)c(O)c1 [Compound 22]
[1]
  IC50: 9.7 ± 1.6 µM
[2]
  IC50: 1.8 ± 0.1 µM

## O=C(N/N=C/c1ccccc1)c1cc(O)c(O)c(O)c1 [Compound 11]
[1]
  IC50: 2.6 ± 0.6 µM
[2]
  IC50: > 100 µM

## COc1cccc(/C=N/NC(=O)c2ccccc2O)c1O [Compound 6]
[1]
  IC50: 37 ± 5 µM
[2]
  IC50: > 100 µM

## COc1cc(C(=O)N/N=C/c2cc(O)ccc2O)cc(OC)c1OC [Compound 19]
[1]
  IC50: > 100 µM
[2]
  IC50: > 100 µM

## O=C(N/N=C/c1cccc(O)c1O)c1ccccc1 [Compound 3]
[1]
  HIV-1 RNase H IC50: completely abolished
  IC50: > 100 µM
[2]
  IC50: > 100 µM

## O=C(N/N=C/c1cc(O)c(O)cc1O)c1cc(O)c(O)c(O)c1 [Compound 21]
[1]
  IC50: 0.62 ± 0.1 µM
[2]
  IC50: 0.08 ± 0.01 µM

## CCCCCCCC(=O)N/N=C/c1cccc(O)c1O [Compound 1, N′-2,3-dihydroxy benzylidene heptyl hydrazone]
[1]
  IC50: ~60 µM and 61 µM
[2]
  IC50: > 100 µM

## O=C(N/N=C/c1ccccn1)c1cc(O)c(O)c(O)c1 [Compound 12]
[1]
  IC50: 3.2 ± 0.5 µM
[2]
  IC50: > 100 µM

## O=C(N/N=C/c1ccc(O)c(O)c1O)c1ccccc1O [Compound 7]
[1]
  IC50: 25 µM and 25.3 µM
[2]
  IC50: 7.1 ± 0.2 µM

## O=C(N/N=C/c1ccc(O)c(O)c1O)c1cc(O)c(O)c(O)c1 [Compound 20]
[1]
  IC50: 0.175 µM and 0.17 µM
[2]
  IC50: 0.085 ± 0.025 µM

## O=C(N/N=C/c1cccc(O)c1O)c1cc(O)c(O)c(O)c1 [Compound 14]
[1]
  IC50: 3.1 ± 0.5 µM
[2]
  IC50: > 100 µM

## COc1cccc(/C=N/NC(=O)c2cc(O)c(O)c(O)c2)c1O [Compound 15]
[1]
  IC50: 0.92 ± 0.02 µM
[2]
  IC50: > 100 µM

## O=C(N/N=C/c1cc(O)c(O)c(O)c1)c1ccccc1O [Compound 10]
[1]
  IC50: 4.1 ± 0.2 µM
[2]
  IC50: > 100 µM

## O=C(N/N=C/c1c(O)cc(O)cc1O)c1ccccc1O [Compound 9]
[1]
  IC50: 9.6 ± 3.4 µM
[2]
  IC50: 9.4 ± 0.4 µM

## O=C(N/N=C/c1cccc(O)c1O)c1ccccc1O [Compound 5]
[1]
  HIV-1 RNase H IC50: No inhibition
  IC50: > 100 µM

## COc1cccc(/C=N/NC(=O)c2ccccc2)c1O [Compound 4]
[1]
  HIV-1 RNase H IC50: completely abolished
  IC50: > 100 µM

## O=C(N/N=C/c1cc(O)c(O)c(O)c1)c1cc(O)c(O)c(O)c1 [Compound 23]
[1]
  IC50: 0.18 ± 0.03 µM
[2]
  IC50: 0.165 ± 0.025 µM
